Source: article PMC10974622, “Hybrid Peptide-Alkoxyamine Drugs: A Strategy for the Development of a New Family of Antiplasmodial Drugs” (Molecules, 2024)
Read-outs that look alike come from different tables or passages of the source. *1 amine or outer side, *2 acyl side, *3 side chain or, on linkers, in order; H or OH if unused. Where a SMILES comes first, the peptide text is derived from it. Suc = O=C(CCC(=O)[*:2])[*:1]

Columns and labels:
[1] = test system: F32-ART parasites at the quiescent stage; experiment: Quiescent-stage Survival Assay (QSA); type: cell-based, Plasmodium falciparum
Protocol: In this assay, parasites were exposed to dihydroartemisinin (DHA) alone to induce quiescence, prior the addition of the drug to be tested for 48 h, and then the parasite recrudescence was monitored over a maximum of 4 weeks. Activity against quiescent parasites was evidenced by a delay in recrudescence time over 6 days between the conditions “DHA 6 h / DHA 48 h” and “DHA 6 h/(DHA + molecule) 48 h”. Atovaquone was used as a positive control, and its activity against quiescent parasites was here confirmed, as expected, by an extended delay of 11 days in recrudescence time (Figure 5). By contrast, no activity of A8L and A3L against quiescent parasites was evidenced in the QSA, with similar recrudescence time between the conditions “DHA 6 h/DHA 48 h” and “DHA 6 h/(DHA + molecule) 48 h”. […] To understand this phenomenon, we explored the parasite response during treatment with these hybrid compounds.
The QSA was performed according to Reyser et al.. Briefly, ART-resistant ring-stage parasites at 3% parasitemia were exposed for 6 h to 700 nM of DHA (dihydroartemisinin) to induce quiescence or were exposed to no drugs (control condition). After that, the compound to be tested was added in both conditions […]. At the end of the treatment, the drugs were washed off with RPMI-1640, and parasites were replaced in drug-free conditions. Blood smears were performed to follow parasitemia until the day the cultures reached their starting parasitemia, defined as the recrudescence day. If after 30 days no parasite recrudescence was observed, then the data were censored. Data analysis was performed using Kaplan–Meier survival curves. Statistical significance was ascertained by using a log-rank (Mantel-Cox) test using GraphPad Prism 7 software (San Diego, CA, USA).

F32-ART parasites = experiment: Parasitemia monitoring and parasite morphology upon drug exposure, F32-ART ring-stage parasites; type: cell-based, Plasmodium falciparum; conditions: 48 h exposure
Protocol: The effect of hybrid compounds against Plasmodium parasites was assessed by the microscopic examination of parasite morphology upon drug exposure. For this purpose, parasites were synchronized at 0–4 h age by percoll-sorbitol treatment, 0–24 h age by sorbitol treatment, or at schizont stage by percoll treatment at the start of the experiment. Different treatment schedules were tested. In the case of multiple doses, parasite cultures were washed before each new drug addition.

[2] = test system: P. falciparum strain F32-ART (artemisinin-resistant); experiment: microbe, parasite or virus in culture; type: cell-based, Plasmodium falciparum; conditions: for Selectivity Index CC50/IC50: cytotoxicity (Vero cells)/antiplasmodial activity (F32-ART) ratio
Text: The antimalarial activity of peptide-alkoxyamine hybrids was first evaluated in the in vitro antiproliferative test (IC50) using the artemisinin-resistant strain F32-ART (Table 2, Table S1). The roles of the N-substitution of the alkoxyamine moiety (TEMPO- or DBNO-based, for example, A3L/A8L, line 1/line 10), of the configuration (L or D of the peptide, A3L/A3D, line 1/line 2), of the N-protection of the peptide (A3L/A4L or A5L, line 1/ lines 3 and 5) were examined. According to standard rules in the malaria field, only molecules having IC50 values below 1 μM were considered active.
The F32-ART (artemisinin-resistant) strain and the F32-TEM (artemisinin-sensitive strain) were cultured according to Trager and Jensen in RPMI 1640 medium (Fisher Scientific, Illkirch, France) supplemented with 5% human serum (Etablissement français du Sang, Toulouse, France) at 2% hematocrit with type O human blood (Etablissement français du Sang, Toulouse, France), 37 °C, and 5% CO2 in a humidified atmosphere.
(§1) IC50 values corresponding to 50% inhibition of P. falciparum growth were determined by SYBR Green assay, and the assessment of cytotoxicity was performed on Vero cells (cell line from the kidney of a normal adult African green monkey), as previously published. The selectivity index corresponded to the cytotoxicity/activity ratio.

Vero cells [3] = conditions: cited from earlier work
chymotrypsin = biological target: T1, chymotrypsin (Bos taurus, UniProt P00766); experiment: Enzymatic activation and homolysis monitored by EPR, chymotrypsin; type: biochemical; conditions: 37 °C
T1 construct: purchased Worthington
Protocol: Due to the low solubility of A3L/D–A5L/D in water, suitable concentrations (ca. 0.1 mM) for EPR detection could not be reached. Thus, A7L was prepared, which afforded a carboxylate function at a physiological pH. […] As other PLMs were not available, chymotrypsin, a pancreatic protease that accepts substrates with Phe in the P1 position, was used to hydrolyse A7L. The release of the free alkoxyamine, which decomposed spontaneously and rapidly into alkyl radical R3• and nitroxide R1R2NO•, and the concentration in nitroxide was monitored with EPR (Figure 3).
Kinetics were performed in HEPES 50 mM buffer containing […] at 37 °C. Then, 2.5 mM of hemin (Santa Cruz biotechnology, Heidelberg, Germany) was added to scavenge the alkyl radicals. In one, kinetic Chymotrypsin (Worthington, OH, USA) was added. Activation and homolysis were monitored by reading the concentrations of released TEMPO using, versus time, a calibrated EPR spectrometer (EMX Nano, Bruker, Wissembourg, France).

Solubility in water = type: physicochemical
PLM I = PLM I (Plasmodium falciparum, UniProt P39898); experiment: Enzymatic activation monitored by EPR, PLM I; type: biochemical
Sequence of PLM I (P39898 124-452): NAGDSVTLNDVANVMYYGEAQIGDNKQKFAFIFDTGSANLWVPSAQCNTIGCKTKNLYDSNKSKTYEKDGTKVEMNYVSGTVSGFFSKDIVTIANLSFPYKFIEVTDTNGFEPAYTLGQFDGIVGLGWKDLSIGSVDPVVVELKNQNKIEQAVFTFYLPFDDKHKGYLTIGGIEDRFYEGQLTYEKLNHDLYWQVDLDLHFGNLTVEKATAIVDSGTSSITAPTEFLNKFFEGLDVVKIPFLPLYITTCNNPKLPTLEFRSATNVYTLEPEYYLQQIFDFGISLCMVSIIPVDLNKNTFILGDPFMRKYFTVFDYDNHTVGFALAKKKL

S. mansoni = test system: S. mansoni; parameters: method as in doi:10.1021/cr00014a008; conditions: 100 μg/mL, in 2 h, in vitro ref 22; cited from earlier work
[4] = Kinetic analysis of alkoxyamine bond homolysis by EPR; type: physicochemical; conditions: Equation (2), A = 2.4 · 10^14 s^−1
Protocol: The kinetic homolysis for peptide-alkoxyamines reported in Table 1 was recorded in EPR using two solvents, tert-butylbenzene (t-BuPh) or an n-propanol:water (1:1, v:v) mixture. The growth of nitroxide was recorded in the presence of an alkyl radical scavenger, i.e., O2 here, to suppress the back reaction (kc in Scheme 4), as already reported.
Homolysis rate constants kd are given by Equation (1) ([nitroxide]∞ = [alkoxyamine]0 = 0.1 mM), and the subsequent activation energy values Ea are given by Equation (2), as follows:(1) lnnitroxide∞−nitroxidet/nitroxide∞=−kd·t (2) Ea=−RTlnkd/A

Vero cells [5] = experiment: in vitro; type: cell-based, African green monkey; conditions: African green monkey
Protocol: as §1

in vitro = type: cell-based, African green monkey; conditions: African green monkey, Cytotoxicity CC50
Protocol: as §1

[6] = Plasmodium falciparum, F32, read-out: Antiplasmodial Activity IC50, strain F32-ART, SYBR Green assay, mean ± SEM of 3 to 6 experiments
[7] = strain F32-ART, SYBR Green assay, mean ± SEM of 3 to 6 experiments, read-out: Antiplasmodial Activity IC50
[8] = read-out: Antiplasmodial Activity IC50, strain F32-ART, SYBR Green assay, mean ± SEM of 3 to 6 experiments

In the case of `O=C1C(O)=C([C@H]2CC[C@H](c3ccc(Cl)cc3)CC2)C(=O)c2ccccc21` [Atovaquone, reference compound], the “delay in recrudescence time between DHA 6 h/DHA 48 h and DHA 6 h/(DHA + molecule) 48 h” value ([1]; 700 nM DHA, compound at 7 µM) is reported as 11 days.
For `CC(ON1C(C)(C)CCCC1(C)C)c1ccc(NC(=O)[C@H](Cc2ccccc2)NC(=O)[C@@H](NC(=O)[C@H](Cc2ccccc2)NC(=O)OC(C)(C)C)C(C)C)cc1` (stereo partly drawn) [A3L, Boc-Phe-Val-Phe-anilide-TEMPO], the “activity against quiescent parasites in the QSA” value ([1]; 700 nM DHA 6 h/(DHA + molecule 7 µM) 48 h) was “no activity”, the “effect on parasitemia and parasite cell cycle” value (F32-ART parasites) was “cytostatic-like effect” and the IC50 [2, 6] was 0.3 ± 0.04 µM. The IC50 ([2]; Plasmodium falciparum, F32, read-out: Antiplasmodial IC50, strain F32-ART) was 0.27 µM, the “Selectivity Index CC50/IC50” value [2] was over 165 and the CC50 (Vero cells [3]) was over 50 µM.
In the case of `CC(ON1C(C)(C)CCCC1(C)C)c1ccc(NC(=O)[C@H](Cc2ccccc2)NC(=O)[C@@H](NC(=O)[C@H](Cc2ccccc2)NC(=O)CCC(=O)O)C(C)C)cc1` (stereo partly drawn) [A7L, suc-Phe-Val-Phe-anilide-TEMPO], the “stability of the prodrug” value (chymotrypsin; absence of chymotrypsin) is reported as “stable at 37 °C”, the “activation by protease, release of nitroxide (EPR)” value (chymotrypsin; presence of chymotrypsin, HEPES buffer) is reported as “activatable by chymotrypsin” and the “pH above which soluble” value (Solubility in water) is reported as “above 5.5”. The “EPR signal of TEMPO in the presence of PLM I” value (PLM I) was “no EPR signal of TEMPO could be observed”, the IC50 [2, 6] was 5 ± 3 µM and the “Selectivity Index CC50/IC50” value [2] was over 10. The CC50 (Vero cells [3]) was over 50 µM.
For `CCc1ccc(NC(=O)[C@H](Cc2ccccc2)NC(=O)[C@@H](NC(=O)[C@@H](N)Cc2ccccc2)C(C)C)cc1` [P22L], the IC50 [2, 7] is listed as over 10 µM and the CC50 (Vero cells [3]) is listed as over 50 µM.
For `CC(C)[C@H](NC(=O)[C@H](Cc1ccccc1)NC(=O)CCC(=O)O)C(=O)N[C@@H](Cc1ccccc1)C(=O)O` [P10L] (Suc-Phe-Val-Phe-OH), the IC50 [2, 7] is given as over 50 µM and the CC50 (Vero cells [3]) is given as over 50 µM.
For `CC(C)[C@H](NC(=O)[C@H](Cc1ccccc1)NC(=O)CCC(=O)OCc1ccccc1)C(=O)N[C@@H](Cc1ccccc1)C(=O)O` [P12L], the IC50 [2, 7] is given as over 10 µM and the CC50 (Vero cells [3]) is given as over 50 µM.
In the case of `CCc1ccc(NC(=O)[C@H](Cc2ccccc2)NC(=O)[C@@H](NC(=O)[C@H](Cc2ccccc2)NC(=O)CCC(=O)OCc2ccccc2)C(C)C)cc1` [P23L], the IC50 [2, 7] is given as over 10 µM and the CC50 (Vero cells [3]) is given as over 50 µM.
In the case of `CC(ON1C(C)(C)CCCC1(C)C)c1ccc(NC(=O)[C@H](Cc2ccccc2)NC(=O)[C@@H](NC(=O)[C@@H](N)Cc2ccccc2)C(C)C)cc1` (stereo partly drawn) [A5L], the IC50 [2, 8] is listed as over 50 µM, the CC50 (Vero cells [3]) is listed as over 50 µM and the schistosomal population killed (S. mansoni) is listed as 50%.
With `CC(ON(C(C)(C)C)C(C)(C)C)c1ccc(NC(=O)[C@@H](Cc2ccccc2)NC(=O)OC(C)(C)C)cc1` (stereo partly drawn) [A9D] the “activation energy Ea” value ([4]; in t-BuPh) was 28.87 kcal/mol and the “activation energy Ea” value ([4]; in water/n-PrOH 1/1 v/v) was 28.42 kcal/mol.
In the case of `CC(ON1C(C)(C)CCCC1(C)C)c1ccc(NC(=O)[C@@H](Cc2ccccc2)NC(=O)[C@H](NC(=O)[C@H](N)Cc2ccccc2)C(C)C)cc1` (stereo partly drawn) [A4D], the IC50 [2, 6] is reported as 2.2 to 2.6 µM, the “Selectivity Index CC50/IC50” value [2] is reported as 1.1 and the IC50 [2, 8] is reported as 2.3 ± 0.3 µM. For the same compound, the CC50 (Vero cells [5]) was 2.6 ± 0.3 µM and the CC50 (in vitro) was 2.2 to 2.6 µM.
For `CC(ON(C(C)(C)C)C(C)(C)C)c1ccc(NC(=O)[C@@H](Cc2ccccc2)NC(=O)[C@@H](NC(=O)[C@H](Cc2ccccc2)NC(=O)OC(C)(C)C)C(C)C)cc1` (stereo partly drawn) [A8DL], the “activation energy Ea” value ([4]; in t-BuPh) was 28.51 kcal/mol, the “activation energy Ea” value ([4]; in water/n-PrOH 1/1 v/v) was 28.3 kcal/mol and the IC50 [2, 6] was 0.87 ± 0.04 µM. For the same compound, the “Selectivity Index CC50/IC50” value [2] was over 57 and the CC50 (in vitro) was over 50 µM.
With `C[C@H]1[C@@H](O)O[C@@H]2O[C@@]3(C)CC[C@H]4[C@H](C)CC[C@@H]1[C@@]24OO3` [DHA, dihydroartemisinin, reference compound] the “effect on parasitemia and parasite cell cycle” value (F32-ART parasites) was “high parasitemia decrease”.
Compound `CC(ON(C(C)(C)C)C(C)(C)C)c1ccc(NC(=O)[C@@H](Cc2ccccc2)NC(=O)[C@H](NC(=O)[C@H](N)Cc2ccccc2)C(C)C)cc1` (stereo partly drawn) [AW231] has an IC50 [2, 8] of 4.48 ± 0.29 µM and a CC50 (Vero cells [5]) of 6.6 ± 0.4 µM.
In the case of `CC(ON(C(C)(C)C)C(C)(C)C)c1ccc(NC(=O)[C@H](Cc2ccccc2)NC(=O)OC(C)(C)C)cc1` (stereo partly drawn) [A9L], the “activation energy Ea” value ([4]; in t-BuPh) is reported as 28.8 kcal/mol and the “activation energy Ea” value ([4]; in water/n-PrOH 1/1 v/v) is reported as 28.42 kcal/mol.
For `CC(ON(C(C)(C)C)C(C)(C)C)c1ccc(NC(=O)[C@@H](Cc2ccccc2)NC(=O)[C@H](NC(=O)[C@@H](Cc2ccccc2)NC(=O)OC(C)(C)C)C(C)C)cc1` (stereo partly drawn) [A8D], the “activation energy Ea” value ([4]; in t-BuPh) was 28.94 kcal/mol, the “activation energy Ea” value ([4]; in water/n-PrOH 1/1 v/v) was 28.32 kcal/mol and the IC50 [2, 6] was 50 µM. It also gave a CC50 (in vitro) of over 50 µM.
For `CC(ON1C(C)(C)CCCC1(C)C)c1ccc(NC(=O)[C@H](Cc2ccccc2)NC(=O)[C@@H](NC(=O)[C@@H](N)Cc2ccccc2)C(C)C)cc1` (stereo partly drawn) [A4L], the IC50 [2, 6] is given as over 50 µM, the CC50 (Vero cells [3]) is given as over 50 µM and the schistosomal population killed (S. mansoni) is given as 50%.
For `CCc1ccc(NC(=O)[C@H](Cc2ccccc2)NC(=O)[C@@H](NC(=O)[C@H](Cc2ccccc2)NC(=O)CCC(=O)O)C(C)C)cc1` [P24L], the IC50 [2, 7] is listed as over 10 µM and the CC50 (Vero cells [3]) is listed as over 50 µM.
